# From patent US20240150377A1, “MODULATORS OF CYSTIC FIBROSIS TRANSMEMBRANE CONDUCTANCE REGULATOR” (VERTEX PHARMACEUTICALS INCORPORATED, priority 2020, published 2024)
# Where two headings read alike, the source gives them in different places.
# Target: T1, CFTR (Homo sapiens, UniProt P13569, DEL508-508)
# T1 construct: endogenous in cells; host or cells: primary human bronchial epithelial cells from CF subjects (F508del/MF-HBE), differentiated at air-liquid interface
# Assay: HBE assay: Ussing chamber assay of CFTR-mediated short-circuit currents
# Assay type: cell-based
# Description: 1. Ussing Chamber Assay of CFTR-Mediated Short-Circuit Currents
# (§1) Ussing chamber experiments were performed using human bronchial epithelial (HBE) cells derived from CF subjects heterozygous for F508del and a minimal function CFTR mutation (F508del/MF-HBE) and cultured as previously described (Neuberger T, Burton B, Clark H, Van Goor F Methods Mol Biol 2011:741:39-54). After four days the apical media was removed, and the cells were grown at an air liquid interface for >14 days prior to use.
# (§2) To isolate the CFTR-mediated short-circuit (ISC) current, F508del/MF-HBE grown on Costar® Snapwell™ cell culture inserts were mounted in an Ussing chamber and the transepithelial ISC was measured under voltage-clamp recording conditions (Vhold=0 mV) at 37° C. The basolateral solution contained (in mM) 145 NaCl, 0.83 K2HPO4, 3.3 KH2PO4, 1.2 MgCl2, 1.2 CaCl2), 10 Glucose, 10 HEPES (pH adjusted to 7.4 with NaOH) and the apical solution contained (in mM) 145 NaGluconate, 1.2 MgCl2, 1.2 CaCl2), 10 glucose, 10 HEPES (pH adjusted to 7.4 with NaOH) and 30 μM amiloride to block the epithelial sodium channel. Forskolin (20 μM) was added to the apical surface to activate CFTR, followed by apical addition of a CFTR inhibitor cocktail consisting of BPO, GlyH-101, and CFTR inhibitor 172 (each at 20 μM final assay concentration) to specifically isolate CFTR currents. The CFTR-mediated ISC (μA/cm^2) for each condition was determined from the peak forskolin response to the steady-state current following inhibition.
# 2. Identification of Corrector Compounds
# The activity of the CFTR corrector compounds on the CFTR-mediated ISC was determined in Ussing chamber studies as described above. The F508del/MF-HBE cell cultures were either incubated with the corrector compounds at a range of concentrations in combination with 1 μM Ivacaftor or were incubated with the corrector compounds at a single fixed concentration of 10 μM in combination with 1 μM Ivacaftor for 18-24 hours at 37° C. and in the presence of 20% human serum. The concentration of corrector compounds with 1 μM Ivacaftor during the 18-24 hours incubations was kept constant throughout the Ussing chamber measurement of the CFTR-mediated ISC to ensure compounds were present throughout the entire experiment.
# Ussing Chamber Assay of CFTR-mediated short-circuit currents
# as §1, with “(HIBE)” for “(HBE)”, “(F508del/MIF-HIBE)” for “(F508del/MF-HBE)”
# as §2, with “KH2PO4,” for “K2HPO4,”
# Identification of Corrector Compounds
# [1] = Table 11, at 10 μM, read-out: HBE Activity at 10 μM (%)
# [2] = Table 11, read-out: HBE Max Activity (%)
# [3] = Table 10, read-out: HBE Max activity (%)
# [4] = HBE assay, read-out: HBE Max activity (%)
# [5] = HBE assay, 10 μM, read-out: HBE Activity at 10 μM (%)
# T1 sequence (P13569 with tags, fused parts or gaps DEL508-508): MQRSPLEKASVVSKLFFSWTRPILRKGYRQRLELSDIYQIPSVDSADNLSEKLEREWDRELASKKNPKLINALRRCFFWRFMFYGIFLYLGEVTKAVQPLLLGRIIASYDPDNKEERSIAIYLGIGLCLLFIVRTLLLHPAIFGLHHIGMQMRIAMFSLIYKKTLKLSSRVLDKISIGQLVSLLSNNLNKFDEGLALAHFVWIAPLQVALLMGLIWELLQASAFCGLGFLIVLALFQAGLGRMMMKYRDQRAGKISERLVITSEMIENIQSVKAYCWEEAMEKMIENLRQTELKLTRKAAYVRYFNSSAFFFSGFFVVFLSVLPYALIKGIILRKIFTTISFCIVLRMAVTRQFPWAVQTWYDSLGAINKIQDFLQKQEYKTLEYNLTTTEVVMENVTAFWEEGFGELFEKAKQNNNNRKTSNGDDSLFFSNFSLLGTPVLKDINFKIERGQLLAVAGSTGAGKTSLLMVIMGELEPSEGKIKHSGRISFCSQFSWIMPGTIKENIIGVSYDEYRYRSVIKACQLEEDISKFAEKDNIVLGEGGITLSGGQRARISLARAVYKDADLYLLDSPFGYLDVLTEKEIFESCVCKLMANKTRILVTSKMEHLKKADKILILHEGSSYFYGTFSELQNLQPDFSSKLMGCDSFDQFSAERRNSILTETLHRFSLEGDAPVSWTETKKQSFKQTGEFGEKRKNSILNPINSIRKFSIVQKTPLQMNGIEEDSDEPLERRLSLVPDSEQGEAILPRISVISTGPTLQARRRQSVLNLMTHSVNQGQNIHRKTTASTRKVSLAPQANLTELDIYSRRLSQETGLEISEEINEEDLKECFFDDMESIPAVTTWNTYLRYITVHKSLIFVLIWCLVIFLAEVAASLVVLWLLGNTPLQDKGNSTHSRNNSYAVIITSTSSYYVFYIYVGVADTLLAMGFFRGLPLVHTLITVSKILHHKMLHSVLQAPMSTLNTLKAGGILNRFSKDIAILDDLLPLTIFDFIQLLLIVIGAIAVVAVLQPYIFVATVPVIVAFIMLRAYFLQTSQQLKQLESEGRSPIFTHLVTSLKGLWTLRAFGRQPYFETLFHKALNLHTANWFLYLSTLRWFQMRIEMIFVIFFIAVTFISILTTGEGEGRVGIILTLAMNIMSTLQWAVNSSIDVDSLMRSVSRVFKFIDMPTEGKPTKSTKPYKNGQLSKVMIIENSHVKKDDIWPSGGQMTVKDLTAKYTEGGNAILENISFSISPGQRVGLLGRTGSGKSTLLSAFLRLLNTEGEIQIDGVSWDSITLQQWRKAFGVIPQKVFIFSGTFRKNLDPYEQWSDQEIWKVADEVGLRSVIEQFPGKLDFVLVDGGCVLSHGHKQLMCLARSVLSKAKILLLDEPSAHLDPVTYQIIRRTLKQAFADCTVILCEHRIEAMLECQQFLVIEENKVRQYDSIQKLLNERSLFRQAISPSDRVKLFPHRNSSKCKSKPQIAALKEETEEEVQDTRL
structure (smiles),measurement,setting,value
"Cc1cccc(C)c1-c1cc2nc(n1)NS(=O)(=O)c1cccc(c1)C(=O)N(CC1CCCC(C)(C)O1)[C@H](CC(C)(C)C)CO2 (single isomer, unassigned) [Compound 19]",activation at 10 µM,[1],> 60%
"Cc1cccc(C)c1-c1cc2nc(n1)NS(=O)(=O)c1cccc(c1)C(=O)N(CC1CCC(C)(C)CO1)[C@H](CC(C)(C)C)CO2 (single isomer, unassigned) [Compound 22]",EC50,"Table 11, read-out: HBE EC50",< 1 µM
same,Emax,[2],> 60%
"Cc1cccc(C)c1-c1cc2nc(n1)NS(=O)(=O)c1cccc(c1)C(=O)N(CC1CCC(C)(C)CO1)[C@H](CC(C)(C)C)CO2 (single isomer, unassigned) [Compound 23]",EC50,"Table 11, read-out: HBE EC50",< 1 µM
"Cc1cccc(C)c1-c1cc2nc(n1)NS(=O)(=O)c1cccc(c1)C(=O)N(C[C@H]1CC(C)(C)CCO1)[C@H](CC(C)(C)C)CO2 (single isomer, unassigned) [Compound 24]",activation at 10 µM,[1],> 60%
"Cc1cccc(C)c1-c1cc2nc(n1)NS(=O)(=O)c1cccc(c1)C(=O)N(CC1CC(C)(C)CCO1)[C@H](CC(C)(C)C)CO2 (single isomer, unassigned) [Compound 25]",activation at 10 µM,[1],> 60%
"Cc1cccc(C)c1-c1cc2nc(n1)NS(=O)(=O)c1cccc(c1)C(=O)N(CC1OCCC1(C)C)[C@H](CC(C)(C)C)CO2 (single isomer, unassigned) [Compound 26]",activation at 10 µM,[1],> 60%
"Cc1cccc(C)c1-c1cc2nc(n1)NS(=O)(=O)c1cccc(c1)C(=O)N(CC1CCOC(C)(C)C1)[C@H](CC(C)(C)C)CO2 (single isomer, unassigned) [Compound 28]",activation at 10 µM,[1],> 60%
"Cc1cccc(C)c1-c1cc2nc(n1)NS(=O)(=O)c1cccc(c1)C(=O)N(CC1CCC(C)(C)OC1)[C@H](CC(C)(C)C)CO2 (single isomer, unassigned) [Compound 31]",activation at 10 µM,[1],> 60%
"Cc1cccc(C)c1-c1cc2nc(n1)NS(=O)(=O)c1cccc(c1)C(=O)N(CC1CCC(C)(C)O1)[C@H](CC(C)(C)C)CO2 (single isomer, unassigned) [Compound 33]",activation at 10 µM,[1],> 60%
"Cc1cccc(C)c1-c1cc2nc(n1)NS(=O)(=O)c1cccc(c1)C(=O)N(CC1CCC(C)(C)O1)[C@H](CC(C)(C)C)CO2 (single isomer, unassigned) [Compound 34]",EC50,"Table 11, read-out: HBE EC50",< 1 µM
same,Emax,[2],> 60%
"Cc1cccc(C)c1-c1cc2nc(n1)NS(=O)(=O)c1cccc(c1)C(=O)N(CC1OCCCC1(C)C)[C@H](CC(C)(C)C)CO2 (single isomer, unassigned) [Compound 35]",activation at 10 µM,[1],> 60%
"Cc1cccc(C)c1-c1cc2nc(n1)NS(=O)(=O)c1cccc(c1)C(=O)N(CC1CC(N3C[C@@H](C)O[C@@H](C)C3)C1)[C@H](CC(C)(C)C)CO2 (single isomer, unassigned) [Compound 63]",EC50,"read-out: HBE EC50, Table 10",< 1 µM
"Cc1cccc(C)c1-c1cc2nc(n1)NS(=O)(=O)c1cccc(c1)C(=O)N(CC1CC(N3C[C@@H](C)O[C@@H](C)C3)C1)[C@H](CC(C)(C)C)CO2 (single isomer, unassigned) [Compound 64]",EC50,"HBE EC50 (μM), Table 10",< 1 µM
same,Emax,read-out: HBE Max activity (%),> 60%
"Cc1cccc(C)c1-c1cc2nc(n1)NS(=O)(=O)c1cccc(c1)C(=O)N(C[C@H]1CC[C@@H](O)CC1)[C@H](CC(C)(C)C)CO2 (single isomer, unassigned) [Compound 151]",EC50,"Table 10, read-out: HBE EC50",< 1 µM
same,Emax,[3],> 60%
"Cc1cccc(C)c1-c1cc2nc(n1)NS(=O)(=O)c1cccc(c1)C(=O)N(C[C@H]1CC[C@@H](O)CC1)[C@H](CC(C)(C)C)CO2 (single isomer, unassigned) [Compound 152]",activation at 10 µM,"Table 10, at 10 μM, read-out: HBE activity at 10 (μM) (%)",> 60%
"Cc1cccc(C)c1-c1cc2nc(n1)NS(=O)(=O)c1cccc(c1)C(=O)N(CC1CCC(N3CCOCC3)CC1)[C@H](CC(C)(C)C)CO2 (single isomer, unassigned) [Compound 153]",EC50,"Table 10, read-out: HBE EC50",< 1 µM
"Cc1cccc(C)c1-c1cc2nc(n1)NS(=O)(=O)c1cccc(c1)C(=O)N(CC1CCC(N3CCOCC3)CC1)[C@H](CC(C)(C)C)CO2 (single isomer, unassigned) [Compound 154]",EC50,"Table 10, read-out: HBE EC50",< 1 µM
same,Emax,[3],> 60%
Cc1ccc(N2CCCC2C)nc1CN1C(=O)c2cccc(c2)S(=O)(=O)Nc2nc(cc(-c3c(C)cccc3C)n2)OC[C@H]1CC(C)(C)C (stereo in doubt) [Compound 1346],EC50,"HBE assay, read-out: HBE EC50",< 1 µM
same,Emax,[4],> 60%
Cc1cccc(C)c1-c1cc2nc(n1)NS(=O)(=O)c1cccc(c1)C(=O)N(Cc1cncc(N3CCCC3C)n1)[C@H](CC(C)(C)C)CO2 (stereo in doubt) [Compound 1366],EC50,"HBE assay, read-out: HBE EC50",< 1 µM
same,Emax,[4],> 60%
CCC(C)Oc1cnc(CN2C(=O)c3cccc(c3)S(=O)(=O)Nc3nc(cc(-c4c(C)cccc4C)n3)OC[C@H]2CC(C)C)nc1 (stereo in doubt) [Compound 1395],EC50,"HBE assay, read-out: HBE EC50",< 1 µM
same,Emax,[4],> 60%
Cc1cccc(C)c1-c1cc2nc(n1)NS(=O)(=O)c1cccc(c1)C(=O)N(Cc1cccc(N3CCOC[C@@H]3C)n1)[C@H](CC(C)(C)C)CO2 (stereo in doubt) [Compound 1400],EC50,"HBE assay, read-out: HBE EC50",< 1 µM
same,Emax,[4],> 60%
Cc1cccc(C)c1-c1cc2nc(n1)NS(=O)(=O)c1cccc(c1)C(=O)N(Cc1cccc(N3[C@H](C)CC[C@@H]3C)n1)[C@H](CC(C)(C)C)CO2 (stereo in doubt) [Compound 1401],EC50,"HBE assay, read-out: HBE EC50",< 1 µM
same,Emax,[4],> 60%
Cc1cccc(C)c1-c1cc2nc(n1)NS(=O)(=O)c1cccc(c1)C(=O)N(Cc1ncc(N3CC[C@H]3C)cn1)[C@H](CC(C)(C)C)CO2 (stereo in doubt) [Compound 1406],EC50,"HBE assay, read-out: HBE EC50",< 1 µM
Cc1cccc(C)c1-c1cc2nc(n1)NS(=O)(=O)c1cccc(c1)C(=O)N(Cc1cccc(N3CCC[C@@H]3CC(C)C)n1)[C@H](CC(C)(C)C)CO2 (stereo in doubt) [Compound 1429],EC50,"HBE assay, read-out: HBE EC50",< 1 µM
CCC1(CO)CCCN1c1cccc(CN2C(=O)c3cccc(c3)S(=O)(=O)Nc3nc(cc(-c4c(C)cccc4C)n3)OC[C@H]2CC(C)(C)C)n1 (stereo in doubt) [Compound 1458],activation at 10 µM,[5],> 60%
CC[C@@]1(CO)CCCN1c1cccc(CN2C(=O)c3cccc(c3)S(=O)(=O)Nc3nc(cc(-c4c(C)cccc4C)n3)OC[C@H]2CC(C)(C)C)n1 (stereo in doubt) [Compound 1459],activation at 10 µM,[5],> 60%
CO[C@H]1C[C@@H](Oc2cnc(CN3C(=O)c4cccc(c4)S(=O)(=O)Nc4nc(cc(-c5c(C)cccc5C)n4)OC[C@H]3CC(C)C)nc2)C1 (stereo in doubt) [Compound 1462],EC50,"HBE assay, read-out: HBE EC50",< 1 µM
Cc1cccc(C)c1-c1cc2nc(n1)NS(=O)(=O)c1cccc(c1)C(=O)N(Cc1ccnc(N3CCC[C@H]3C(C)C)n1)[C@H](CC(C)(C)C)CO2 (stereo in doubt) [Compound 1476],EC50,"HBE assay, read-out: HBE EC50",< 1 µM
COCC1CCC(C)(C)N1c1cncc(CN2C(=O)c3cccc(c3)S(=O)(=O)Nc3nc(cc(-c4c(C)cccc4C)n3)OC[C@H]2CC(C)(C)C)n1 (stereo in doubt) [Compound 1480],EC50,"HBE assay, read-out: HBE EC50",< 1 µM
same,Emax,[4],> 60%
